Experimental findings from publication PMC10975047, “Antimicrobial Activity of 2-(Piperazin-1-yl)naphtho[2,3-d]thiazole-4,9-dione against Staphylococcus Strains” (Molecules, 2024) are described below.

For orientation: IC50 means the point on the concentration scale where inhibition reaches its midpoint. Read a high IC50 as weaker potency in that assay.

For the experiment, the target named is T1, DNA gyrase (Staphylococcus aureus, UniProt P0A0K8+P20831).
T1 construct: gene gyrA; with DNA gyrase subunit B (GyrB)
T1 sequence (P0A0K8 2-644): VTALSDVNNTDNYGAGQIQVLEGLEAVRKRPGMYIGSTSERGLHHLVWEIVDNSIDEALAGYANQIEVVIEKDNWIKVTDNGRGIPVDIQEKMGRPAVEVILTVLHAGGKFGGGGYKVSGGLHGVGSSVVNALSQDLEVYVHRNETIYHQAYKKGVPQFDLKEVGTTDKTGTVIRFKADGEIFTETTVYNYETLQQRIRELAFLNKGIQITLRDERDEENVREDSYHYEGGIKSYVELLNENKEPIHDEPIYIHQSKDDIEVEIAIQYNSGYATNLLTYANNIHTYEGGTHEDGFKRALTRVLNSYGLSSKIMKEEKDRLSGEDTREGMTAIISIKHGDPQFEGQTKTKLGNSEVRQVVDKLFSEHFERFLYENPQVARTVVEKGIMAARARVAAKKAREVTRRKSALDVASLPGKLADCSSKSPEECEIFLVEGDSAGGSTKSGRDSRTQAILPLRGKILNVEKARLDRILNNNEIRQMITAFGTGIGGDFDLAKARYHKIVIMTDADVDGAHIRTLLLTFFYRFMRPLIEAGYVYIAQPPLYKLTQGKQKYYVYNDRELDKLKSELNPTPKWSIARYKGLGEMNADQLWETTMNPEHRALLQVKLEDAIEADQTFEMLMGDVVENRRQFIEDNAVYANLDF
T1 sequence (P20831 whole entry): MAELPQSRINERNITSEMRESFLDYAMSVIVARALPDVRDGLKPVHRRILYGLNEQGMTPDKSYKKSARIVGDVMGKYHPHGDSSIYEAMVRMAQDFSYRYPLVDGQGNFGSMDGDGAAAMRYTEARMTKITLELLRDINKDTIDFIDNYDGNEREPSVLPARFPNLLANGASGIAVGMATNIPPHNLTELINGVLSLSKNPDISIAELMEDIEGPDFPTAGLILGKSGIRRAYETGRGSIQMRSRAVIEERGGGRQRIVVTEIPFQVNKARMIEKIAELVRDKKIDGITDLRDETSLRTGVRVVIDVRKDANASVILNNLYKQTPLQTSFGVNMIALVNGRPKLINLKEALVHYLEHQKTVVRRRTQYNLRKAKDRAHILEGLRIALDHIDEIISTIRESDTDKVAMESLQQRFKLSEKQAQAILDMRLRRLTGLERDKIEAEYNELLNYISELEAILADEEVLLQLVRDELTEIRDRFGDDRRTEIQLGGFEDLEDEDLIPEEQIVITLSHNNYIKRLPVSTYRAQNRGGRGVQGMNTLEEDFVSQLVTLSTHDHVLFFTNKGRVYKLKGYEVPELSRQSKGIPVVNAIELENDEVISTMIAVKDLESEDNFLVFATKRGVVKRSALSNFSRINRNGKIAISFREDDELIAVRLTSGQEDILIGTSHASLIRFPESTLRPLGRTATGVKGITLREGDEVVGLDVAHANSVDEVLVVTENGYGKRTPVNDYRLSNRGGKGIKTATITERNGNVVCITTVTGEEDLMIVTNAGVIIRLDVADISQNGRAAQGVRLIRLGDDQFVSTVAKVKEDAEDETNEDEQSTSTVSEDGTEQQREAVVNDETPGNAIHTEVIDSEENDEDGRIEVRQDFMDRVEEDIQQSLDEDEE
The experiment in a line: DNA gyrase supercoiling assay (H19 dye fluorescence, ProFoldin kit). In kind it is biochemical.

For `O=C1c2ccccc2C(=O)c2sc(N3CCNCC3)nc21` [PNT, 2-(piperazin-1-yl)naphtho[2,3-d]thiazole-4,9-dione], the IC50 is 372 µM.
